Columns and labels:
Test in all cases: relative viability (nuclei count vs DMSO), 5 days (fraction); higher = more cells survive
Avagacestat + Bortezomib = compound: NC(=O)[C@@H](CCC(F)(F)F)N(Cc1ccc(-c2ncon2)cc1F)S(=O)(=O)c1ccc(Cl)cc1 [Avagacestat] + CC(C)C[C@H](NC(=O)[C@H](Cc1ccccc1)NC(=O)c1cnccn1)B(O)O [Bortezomib] (partner 0.002 µM)
How it was run: (§1)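 Lung cancer cell lines, seeded in 1536-well plates, were treated the following day by pin tool with a single drug or with five library-drug doses (not always all listed) in √10 steps on top of a fixed anchor-drug dose. Cells were fixed and nuclei stained in one step after 5 days, and nuclei were counted. Relative viability is the nuclei count for treated wells divided by that for vehicle wells, reported as medians of duplicate plates.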

Avagacestat + Dasatinib = compound: NC(=O)[C@@H](CCC(F)(F)F)N(Cc1ccc(-c2ncon2)cc1F)S(=O)(=O)c1ccc(Cl)cc1 [Avagacestat] + Cc1nc(Nc2ncc(C(=O)Nc3c(C)cccc3Cl)s2)cc(N2CCN(CCO)CC2)n1 [Dasatinib] (partner 0.075 µM)
How it was run: as §1

Avagacestat + Luminespib = compound: NC(=O)[C@@H](CCC(F)(F)F)N(Cc1ccc(-c2ncon2)cc1F)S(=O)(=O)c1ccc(Cl)cc1 [Avagacestat] + CCNC(=O)c1noc(-c2cc(C(C)C)c(O)cc2O)c1-c1ccc(CN2CCOCC2)cc1 [Luminespib] (partner 0.01 µM)
How it was run: as §1

[1] = compound: NC(=O)[C@@H](CCC(F)(F)F)N(Cc1ccc(-c2ncon2)cc1F)S(=O)(=O)c1ccc(Cl)cc1 [Avagacestat] + CC(=O)c1c(C)c2cnc(Nc3ccc(N4CCNCC4)cn3)nc2n(C2CCCC2)c1=O [Palbociclib] (partner 0.5 µM)
How it was run: as §1

Cell Line | relative viability (Avagacestat + Bortezomib; first compound 0.08 µM) | relative viability (Avagacestat + Bortezomib; first compound 0.253 µM) | relative viability (Avagacestat + Bortezomib; first compound 0.8 µM) | relative viability (Avagacestat + Bortezomib; first compound 2.53 µM) | relative viability (Avagacestat + Bortezomib; first compound 8 µM) | relative viability (Avagacestat + Dasatinib; first compound 0.08 µM) | relative viability (Avagacestat + Dasatinib; first compound 0.253 µM) | relative viability (Avagacestat + Dasatinib; first compound 0.8 µM) | relative viability (Avagacestat + Dasatinib; first compound 2.53 µM) | relative viability (Avagacestat + Dasatinib; first compound 8 µM) | relative viability (Avagacestat + Luminespib; first compound 0.08 µM) | relative viability (Avagacestat + Luminespib; first compound 0.253 µM) | relative viability (Avagacestat + Luminespib; first compound 0.8 µM) | relative viability (Avagacestat + Luminespib; first compound 2.53 µM) | relative viability (Avagacestat + Luminespib; first compound 8 µM) | relative viability ([1]; first compound 0.08 µM) | relative viability ([1]; first compound 0.253 µM) | relative viability ([1]; first compound 0.8 µM) | relative viability ([1]; first compound 2.53 µM) | relative viability ([1]; first compound 8 µM)
SK-LU-1 | 1.46 | 1.21 | 1.32 | 1.13 | 0.737 | 0.172 | 0.138 | 0.18 | 0.142 | 0.189 | 0.223 | 0.189 | 0.218 | 0.201 | 0.225 | 0.377 | 0.372 | 0.327 | 0.338 | 0.345
HARA | 1.71 | 1.09 | 1.17 | 1.16 | 1.07 | 0.234 | 0.254 | 0.228 | 0.262 | 0.239 | 0.783 | 0.201 | 0.614 | 0.536 | 0.87 | 0.26 | 0.237 | 0.248 | 0.263 | 0.24
NCI-H1650 | 0.212 | 0.232 | 0.196 | 0.211 | 0.21 | 0.37 | 0.35 | 0.272 | 0.304 | 0.346 | 0.222 | 0.203 | 0.212 | 0.202 | 0.193 | 0.318 | 0.241 | 0.406 | 0.331 | 0.351
NCI-H2228 | 1.12 | 0.952 | 1.05 | 0.886 | 0.734 | 0.546 | 0.426 | 0.435 | 0.408 | 0.474 | 0.221 | 0.117 | 0.179 | 0.132 | 0.108 | 0.783 | 0.819 | 0.947 | 0.911 | 0.595
NCI-H2023 | 1.13 | 1.1 | 1.08 | 0.886 | 0.808 | 0.564 | 0.643 | 0.563 | 0.419 | 0.422 | 1.06 | 0.862 | 0.952 | 0.514 | 0.762 | 0.363 | 0.327 | 0.33 | 0.316 | 0.294

Source: the supplement of paper PMC10307832
